Experimental data as given in US20210323950A1, “HERBICIDALLY ACTIVE BICYCLIC BENZOYLPYRAZOLES” (Bayer Aktiengesellschaft, priority 2018, published 2021).

Legend:
Type in all cases: in vivo
[1] = test system: Abutilon theophrasti (ABUTH); assay: Post-emergence herbicidal action against ABUTH; details: 20 g/ha, post-emergence at one-leaf stage, rated visually after about 3 weeks vs untreated controls
Experimental: (§1) ABUTH: Abutilon theophrasti 2. Post-Emergence Herbicidal Action and Crop Plant Compatibility Seeds of monocotyledonous and dicotyledonous weeds and crop plants are placed in sandy loam in plastic or organic planting pots, covered with soil and cultivated in a greenhouse under controlled growth conditions. 2 to 3 weeks after sowing, the test plants are treated at the one-leaf stage. The compounds of the invention, formulated in the form of wettable powders (WP) or as emulsion concentrates (EC), are then sprayed onto the green parts of the plants as aqueous suspension or emulsion with addition of 0.5% additive at a water application rate of […] (converted). After the test plants had been kept in the greenhouse under optimum growth conditions for about 3 weeks, the activity of the preparations is rated visually in comparison to untreated controls. The tables below show the herbicidal activity of numerous compounds according to the invention against important harmful plants. For example, 100% activity=the plants have died, 0% activity=like control plants.

[2] = test system: Stellaria media (STEME); assay: Post-emergence herbicidal action against STEME; details: 20 g/ha, post-emergence at one-leaf stage, rated visually after about 3 weeks vs untreated controls
[3] = test system: Amaranthus retroflexus (AMARE); assay: Post-emergence herbicidal action against AMARE; details: 20 g/ha, post-emergence at one-leaf stage, rated visually after about 3 weeks vs untreated controls
How it was run: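 Greenhouse-grown plants in sandy loam were treated at the one-leaf stage, 2–3 weeks after sowing. Activity was rated visually after about 3 weeks against untreated controls (100% = plants dead, 0% = like control).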

[4] = test system: Echinochloa crus-galli (ECHCG); assay: Pre-emergence herbicidal action against ECHCG; details: scored visually after about 3 weeks vs untreated controls
Text: ECHCG: Echinochloa crus-galli 1. Pre-Emergence Herbicidal Action and Crop Plant Compatibility Seeds of monocotyledonous and dicotyledonous weed plants and crop plants are placed in plastic or organic planting pots and covered with soil. The compounds of the invention, formulated in the form of wettable powders (WP) or as emulsion concentrates (EC), are then applied onto the surface of the covering soil as aqueous suspension or emulsion with addition of 0.5% additive at a water application rate of […] (converted). After the treatment, the pots are placed in a greenhouse and kept under good growth conditions for the trial plants. After about 3 weeks, the effect of the preparations is scored visually in comparison with untreated controls as percentages. The tables below show the herbicidal activity of numerous compounds according to the invention against important harmful plants. For example, 100% activity=the plants have died, 0% activity=like control plants.

[5] = test system: Abutilon theophrasti (ABUTH); assay: Pre-emergence herbicidal action against ABUTH; details: scored visually after about 3 weeks vs untreated controls
How it was run: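 Sown pots had WP or EC formulations sprayed onto the covering soil as aqueous suspension/emulsion with 0.5% additive, then were kept in a greenhouse. After about 3 weeks, damage was scored visually as % versus untreated controls (100% = plants dead, 0% = like controls).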

[6] = test system: Viola tricolor (VIOTR); assay: Post-emergence herbicidal action against VIOTR; details: 20 g/ha, post-emergence at one-leaf stage, rated visually after about 3 weeks vs untreated controls
Experimental: as §1, with “VIOTR: Viola tricolor” for “ABUTH: Abutilon theophrasti”

[7] = test system: Viola tricolor (VIOTR); assay: Pre-emergence herbicidal action against VIOTR; details: scored visually after about 3 weeks vs untreated controls
How it was run: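 Seeds were sown in pots and covered with soil. After ~3 weeks in the greenhouse, effect was scored visually versus untreated controls (100% = plants dead, 0% = like control).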

SMILES | Post-emergence action against ABUTH [1] | Post-emergence action against STEME [2] | Post-emergence action against AMARE [3] | Pre-emergence action against ECHCG ([4]; 80 g/ha) | Pre-emergence action against ABUTH ([5]; 80 g/ha) | Post-emergence action against VIOTR [6] | Pre-emergence action against VIOTR ([7]; 80 g/ha) | Pre-emergence action against ECHCG ([4]; 320 g/ha) | Pre-emergence action against ABUTH ([5]; 320 g/ha) | Pre-emergence action against VIOTR ([7]; 320 g/ha)
Cc1nn(C)c(O)c1C(=O)c1ccc(C(F)(F)F)c2c1OCCS2(=O)=O [Example 1-55] | 90% | 90% | 100% | 100% | 100% | 80% | 90% |  |  | 
Cn1ncc(C(=O)c2ccc(C(F)(F)F)c3c2OCCS3)c1O [Example 1-15] |  | 90% | 80% | 80% |  | 80% | 100% |  |  | 
Cn1ncc(C(=O)c2ccc(C(F)(F)F)c3c2OC[S+]3[O-])c1O (stereo not drawn) [Example 1-28] | 90% | 90% | 100% |  |  | 90% |  | 100% | 100% | 100%
Cn1ncc(C(=O)c2ccc(C(F)(F)F)c3c2OCS3)c1O [Example 1-13] | 90% | 100% | 90% |  |  |  |  | 100% | 100% | 100%
Cn1ncc(C(=O)c2ccc(C(F)(F)C(F)(F)F)c3c2OCS3)c1O [Example 1-128] |  | 80% | 80% | 90% | 90% |  | 100% |  |  | 
CCn1ncc(C(=O)c2ccc(C(F)(F)F)c3c2OCC[S+]3[O-])c1O (stereo not drawn) [Example 1-35] | 90% | 90% | 100% | 100% | 100% | 100% | 100% |  |  | 
Cc1nn(C)c(O)c1C(=O)c1ccc(C(F)(F)F)c2c1OCC[S+]2[O-] (stereo not drawn) [Example 1-40] | 80% | 100% | 80% | 80% | 100% | 80% |  |  |  | 
Cn1ncc(C(=O)c2ccc(C(F)(F)F)c3c2OCC[S+]3[O-])c1O (stereo not drawn) [Example 1-30] | 80% |  | 100% | 100% | 100% | 90% | 100% |  |  | 
CCn1ncc(C(=O)c2ccc(C(F)(F)F)c3c2OCCS3(=O)=O)c1O [Example 1-50] | 90% | 80% | 100% | 100% | 100% |  |  |  |  | 
Cn1nc(C2CC2)c(C(=O)c2ccc(C(F)(F)F)c3c2OCC[S+]3[O-])c1O (stereo not drawn) [Example 1-116] | 90% | 100% | 90% | 80% | 80% |  | 100% |  |  | 
Cn1ncc(C(=O)c2ccc(C(F)(F)F)c3c2OCCS3(=O)=O)c1O [Example 1-45] |  | 100% | 100% | 100% | 100% | 90% | 100% |  |  | 
